Source: US7060477B2, “Epoxide hydrolases of aspergillus origin” (Centre National de la Recherche Scientifique, priority 1999, dated 2006)
Like-named read-outs stand apart in the source and are kept apart here.

Tests used:
[1] = tested on: epoxide hydrolase from Aspergillus niger; assay: Effect of selective reagents and co-solvents on epoxide hydrolase activity (pNSO as substrate, diol formed by HPLC); type: biochemical; conditions: for effect of co-solvent on the activity of epoxide hydrolase (opening of the epoxide): organic co-solvent for dissolving the substrate
Experimental: (§1) Add 50 μL of the preparation containing the enzyme to 410 μL of 0.1 M sodium phosphate buffer pH 7.0 (buffer B) and pre-incubate the mixture at 35° C. for 2 min. Then add 40 μL of a 50 mM solution of racemic pNSO in DMF (final pNSO concentration: 4 mM).
(§2) After 10 min of incubation, stop the reaction by adding 1 mL of dichloromethane. Stir the mixture vigorously so as to extract both the substrate and the diol produced. The quantity of diol formed is determined after separation on a column of silica by HPLC (high-pressure liquid chromatography) (Waters Associates, USA) as described previously (Nellaiah et al. 1996).
One unit of epoxide hydrolase represents the quantity of enzyme that catalyses the formation of one μmol of diol per minute in the above conditions. After incubation with raw extracts, the quantity of diol formed increases linearly with time for at least 30 min, and the reaction rate is proportional to the concentration of the enzyme in the range of 0.01 to 1.2 units (Nellaiah et al., 1996).

[2] = cited from earlier work
[3] = Hydrolysis of pNSO by the purified EH: pH/temperature profile, enantioselectivity, regioselectivity; type: biochemical, Aspergillus niger; set-up: activation energy: unit not given here
Experimental: as §1, §2
The incubations with H2[^18O] are carried out in 1 mL flasks containing 180 μL of H2[^18O] buffer B, 20 μL of the purified epoxide hydrolase and 20 μL of substrate (50 mM in acetonitrile). After 1.5 h of incubation at 25° C. with magnetic stirring (500 rpm) the substrate that remains and the product formed are extracted with 2 mL of dichloromethane. The diol is purified by analytical chromatography on silica (eluent: diethylether). 2 μL of samples are analysed by gas chromatography/mass spectrometry (GC/MS). The diol that remains is converted to the corresponding acetonide by reaction with […] in the presence of p-toluene sulphonic acid. The acetonide is analysed by GC/MS as already described by Audier et al., 1968.
Reaction in a total volume of 5 mL is carried out at 25° C., with a substrate with a concentration of 4.3 mM with DMSO (20 vol.%) as co-solvent in a 0.1 M sodium phosphate buffer pH 8.0.
The reaction is started by adding 13 U/L of the purified enzyme. Samples are taken every 30 minutes for quantification of the concentrations of the substrate and of product by HPLC using a reversed-phase column (Nellaiah et al., 1996) and for quantification of the enantiomeric excess of the epoxide and of the diol by gas-phase chromatography (Nellaiah et al., 1996).

[4] = Enzymatic activity of recombinant epoxide hydrolase and mutants (conversion of R enantiomer of para-nitrostyrene oxide to diol); type: biochemical, Aspergillus niger; conditions: 4-nitro-styrene oxide hydrolysed
Experimental: in the Ncol site that contains the starting codon of the pGEF+ vector in the context adapted to a ribosome binding site, upstream of the promoter of the RNA polymerase T7. The resulting plasmid is called pGEF II hereinafter. The PCR fragment AfIII/Eco RI of the EH of Aspergillus is ligated in the Ncol/Eco RI site of pGEF II to produce the pGEF Asp EH″ expression construction. The E. coli strain BL21 (DE 3) (Novagen) is transformed with pGEF Asp EH and put in the LB medium at 30° C. In late exponential phase, induction of expression of the recombinant protein is effected by adding isopropyl-β-thiogalactoside (100 μM). After two hours, the bacteria are collected by centrifugation, resuspended in 0.02 volumes of culture of the STE buffer (Tris-HCl, 10 mM, sodium chloride 100 mM, ethylenediamine tetraacetic acid 1 mM, pH 7.4) and stored at −70° C. Enzymatic activity is determined by converting the R enantiomer of para-nitrostyrene oxide to the corresponding diol. The reaction is carried out at a substrate concentration of 880 μM in 500 μL STE at 37° C. for 30 min, in the presence of 10 μL of acetonitrile which is used as solvent of para-nitrostyrene oxide. […]
The conversion substrate is quantified by adding 400 μL of supernatant to 800 μL of water and reading the optical density at 277 nm, with the molar extinction coefficient of the product being 9.1×10^3 M^−1 cm^−1. […]

[5] = Isoelectric point by electrofocusing; type: physicochemical, Aspergillus niger; conditions: pH gradient 3 to 9, silver nitrate staining
Experimental: SDS-PAGE electrophoresis is carried out on a plate with thickness of 1 mm containing a resolving gel (10% of acrylamide) and a concentrating gel (4% of acrylamide) at pH 8.8 in the presence of 0.1% of sodium dodecyl sulphate (SDS) (Laemmli, 1970). The samples are dissolved in a Tris-HCl buffer (62.5 mM, […]) containing 1% (w/v) of SDS, 10% (v/v) of glycerol and 2% (v/v) of β-mercaptoethanol, and are heated at 100° C. for 2 minutes. The proteins are stained with 0.1% (w/v) of Coomassie blue. Migrations on non-denaturing PAGE gels were effected in the same way except that no β-mercaptoethanol was added to the resolving buffer, and that the samples were not heated. Electrofocusing was carried out with a pH gradient of 3–9 by means of the Pharmacia LKB “Phastsystem” system and standard Pharmacia procedures. The proteins were stained with silver nitrate.

[6] = purified EH of Aspergillus niger, pNSO substrate

O=C([O-])c1cc[c]([Hg][OH])cc1 [4-hydroxy-mercuribenzoate]
effect of selective reagent on the activity of the enzyme [1, 6]: strong inactivation

O=C(OO)c1cccc(Cl)c1 [meta-chloroperbenzoic acid]
effect of selective reagent on the activity of the enzyme [1, 6]: strongly inhibit

O=C(O)CN(CCN(CC(=O)O)CC(=O)O)CC(=O)O [EDTA]
effect of selective reagent on the activity of the enzyme [1]: no effect

OCCS [β-mercaptoethanol]
effect of selective reagent on the activity of the enzyme [1, 6]: positive effect

CC(C)=O [acetone]
effect of co-solvent on the activity of epoxide hydrolase (opening of the epoxide) ([1]; pNSO substrate): strongest activities

CN(C)C=O [DMF]
effect of co-solvent on the activity of epoxide hydrolase (opening of the epoxide) ([1]; pNSO substrate): strongest activities

NC(=O)CI [iodoacetamide]
effect of selective reagent on the activity of the enzyme [1, 6]: strong inactivation

C1CCOC1 [THF]
effect of co-solvent on the activity of epoxide hydrolase (opening of the epoxide) ([1]; pNSO substrate): low activity

[Cl][Hg][Cl] [HgCl2]
effect of selective reagent on the activity of the enzyme [1, 6]: strong inactivation

phenylmethane sulphonyl chloride [PMSF]
effect of selective reagent on the activity of the enzyme [1, 6]: no effect

OO [hydrogen peroxide]
effect of selective reagent on the activity of the enzyme [1, 6]: strongly inhibit

N[C@@H](CS)C(=O)O [cysteine]
effect of selective reagent on the activity of the enzyme [1, 6]: positive effect

B1: rat microsomal epoxide hydrolase (mEH): rat microsomal epoxide hydrolase, literature comparison enzyme (protein, UniProt P07687 1-455, looked up)
Epoxide hydrolase 1: MWLELVLASLLGFVIYWFVSRDKEETLPLGDGWWGPGSKPSAKEDESIRPFKVETSDEEIKDLHQRIDRFRASPPLEGSRFHYGFNSNYMKKVVSYWRNEFDWRKQVEILNQYPHFKTKIEGLDIHFIHVKPPQLPSGRTPKPLLMVHGWPGSFYEFYKIIPLLTDPKSHGLSDEHVFEVICPSIPGYGYSEASSKKGLNSVATARIFYKLMTRLGFQKFYIQGGDWGSLICTNMAQMVPNHVKGLHLNMAFISRSFYTMTPLLGQRFGRFLGYTEKDIELLYPYKEKVFYSIMRESGYLHIQATKPDTVGCALNDSPVGLAAYILEKFSTWTKSEYRELEDGGLERKFSLDDLLVNIMIYWTTGTIVSSQRYYKENLGQGIMVHKHEGMKVFVPTGFSAFPSELLHAPEKWVKVKYPKLISYSYMERGGHFAAFEEPKLLAQDIRKFVSLAELQ
conversion number increased by a factor ([2]; on replacing Glu^404 of the charge relay system with aspartic acid): 30 | specific activity ([2]; styrene oxide and benzo[α]pyrene oxide): about 500 nmol converted per minute and milligram of pure enzyme

B2: EH from Aspergillus niger: fungal epoxide hydrolase represented by SEQ ID NO: 2, purified from Aspergillus niger LCP521 or recombinant in E. coli (protein)
chain: MSAPFAKFPSSASISPNPFTVSIPDEQLDDLKTLVRLSKIAPPTYESLQADGRFGITSEWLTTMREKWLSEFDWRPFEARLNSFPQFTTEIEGLTIHFAALFSEREDAVPIALLHGWPGSFVEFYPILQLFREEYTPETLPFHLVVPSLPGYTFSSGPPLDKDFGLMDNARVVDQLMKDLGFGSGYIIQGGDIGSFVGRLLGVGFDACKAVHLNLCAMRAPPEGPSIESLSAAEKEGIARMEKFMTDGLAYAMEHSTRPSTIGHVLSSSPIALLAWIGEKYLQWVDKPLPSETILEMVSLYWLTESFPRAIHTYRETTPTASAPNGATMLQKELYIHKPFGFSFFPKDLCPVPRSWIATTGNLVFFRDHAEGGHFAALERPRELKTDLTAFVEQVWQK
modifications: Aspergillus niger
pH of maximum activity [3]: 7 pH | temperature of maximum activity [3]: 40 °C | regioselectivity of the reaction ([3]; for the 2 carbon, pNSO): 97% | activation energy ([3]; from 2 to 40° C.): 27 | ratio of the specific constant (kcat/Km): initial rate of hydrolysis of (R) enantiomer versus (S) enantiomer ([3]; starting from racemic pNSO): 55 times | specific activity [4]: 100 μmol per minute and milligram | isoelectric point [5]: 4.5
